# How the values were obtained:
# [1] = system: Aspergillus niger (ATCC 12845); test: Antifungal activity, agar plate growth inhibition; format: cell-based; conditions: 14 days
# Method: (§1) Dilutions of the sterile solutions were prepared and added to liquified potato dextrose agar (Difco) to yield final concentrations of 100, 10 and 1 μg/ml. The agar, containing the appropriate organotin compound, was poured into sterile petri dishes and allowed to solidify over night. The agar surface was inoculated centrally with a 2 mm^2 portion of the growth from a ten-day-old culture of each fungus of the group consisting of Aspergillus niger, Chaetomium globosum, Cladosporium carpophilum, Fusarium moniliforme, Myrotheium verrucaria, Penicillium notatum, Rhizopus stolonifer, Trichoderma viride and Trichophyton mentagrophytes, or from a two-day-old culture of Saccharomyces cerevisiae. Inoculated plates were incubated for 14 days and observations of growth inhibition were made by measuring the diameters of the colonies present on the agar surface.
# (§2) A solvent was included in all evaluations, as were growth controls for all fungal species.
# (§3) The following compounds were tested for comparative purposes: [drawing 6] These compounds were tested for antifungal activity in the same manner as the triorganotin 5-nitro-2-furoates of the present invention.
# [2] = system: Chaetomium globosum (ATCC 6205); test: Antifungal activity, agar plate growth inhibition; format: cell-based; conditions: 14 days
# Method: as §1, §2, §3
# [3] = system: Fusarium moniliforme (ATCC 10052); test: Antifungal activity, agar plate growth inhibition; format: cell-based; conditions: 14 days
# Method: as §1, §2, §3
# [4] = system: Myrothecium verrucaria (ATCC 9095); test: Antifungal activity, agar plate growth inhibition; format: cell-based; conditions: 14 days
# Method: as §1, §2, §3
# [5] = system: Penicillium notatum (ATCC 9179); test: Antifungal activity, agar plate growth inhibition; format: cell-based; conditions: for growth inhibition: 14 days
# Method: as §1, §2, §3
# [6] = system: Rhizopus stolonifer (ATCC 10404); test: Antifungal activity, agar plate growth inhibition; format: cell-based; conditions: 14 days
# Method: as §1, §2, §3
# [7] = system: Saccharomyces cerevisiae (ATCC 9896); test: Antifungal activity, agar plate growth inhibition; format: cell-based; conditions: 14 days
# Method: as §1, §2, §3
# [8] = system: Trichoderma viride (ATCC 8678); test: Antifungal activity, agar plate growth inhibition; format: cell-based; conditions: 14 days
# Method: as §1, §2, §3
# [9] = system: Trichophyton mentagrophytes (ATCC 9129); test: Antifungal activity, agar plate growth inhibition; format: cell-based; conditions: 14 days
# Method: as §1, §2, §3
# [10] = system: Cladosporium carpophilium (ATCC 12117); test: Antifungal activity, agar plate growth inhibition; format: cell-based, Cladosporium carpophilum; conditions: for growth inhibition: 14 days
# Method: as §1, §2, §3
# Escherichia coli = test: Antibacterial activity, agar growth inhibition; format: cell-based; conditions: for growth inhibition: Gram-negative, 24 hours at 37° C.
# Method: (§4) The agar was also needed with a 1:100 dilution of an 18-hour old culture of the desired bacterial species in sterile distilled water. The plates were incubated for 24 hours at 37° C. with each bacterial strain. Observations of bacterial growth inhibition were made following the appropriate incubation period.
# (§5) A solvent control was included in all evaluations, as were growth controls for all bacteria species.
# (§6) These compounds were tested for antibacterial activity in the same manner as the triorganotin 5-nitro-2-furoates of the present invention.
# (§7) All of the bacteria tested were obtained from the culture collection of the Department of Biological Sciences, St. John's University.
# Pseudomonas aeruginosa = test: Antibacterial activity, agar growth inhibition; format: cell-based; conditions: for growth inhibition: Gram-negative, 24 hours at 37° C.
# Method: as §4, §5, §6, §7
# Staphylococcus aureus = test: Antibacterial activity, agar growth inhibition; format: cell-based; design: key to growth inhibition: -: no inhibition of growth; +: partial inhibition; 2+: complete inhibition; conditions: for growth inhibition: 24 hours at 37° C.
# Method: as §4, with “The antibacterial activity of Compounds A-E was investigated by means of incorporating the compounds into sterile tryptic soy agar (Difco) at levels of 100, 10, and 1 μg/ml. The agar” for “The agar”
# as §5
# Comparative compounds 1-5 above were employed for comparison purposes. These compounds were tested for antibacterial activity in the same manner as the triorganotin 5-nitro-2-furoates of the present invention.
# as §7
# The ability of Compound B to inhibit the growth of other Gram-positive bacteria, using the same test procedures as described for the antibacterial activity determined in Table III above, is illustrated in Table IV below.
# Bacillus megaterium = test: Antibacterial activity, agar growth inhibition; format: cell-based; conditions: Gram-positive
# Method: as §4, §5, §6, §7
# test fungi = test: Antifungal activity, summary over the 10 test fungi; format: cell-based
# Method: as §1, §2, §3
substance,measurement,setting,value
"Tri(2-phenyl-2,2-dimethylethyl)tin 5-nitro-2-furoate [Compound D]",growth inhibition,[1]; 1 μg/ml,-
same,growth inhibition,[1]; 10 μg/ml,-
same,growth inhibition,[1]; 100 μg/ml,-
same,growth inhibition,[2]; 1 μg/ml,-
same,growth inhibition,[2]; 10 μg/ml,+
same,growth inhibition,[2]; 100 μg/ml,+
same,growth inhibition,[3]; 1 μg/ml,-
same,growth inhibition,[3]; 10 μg/ml,-
same,growth inhibition,[3]; 100 μg/ml,-
same,growth inhibition,[4]; 1 μg/ml,-
same,growth inhibition,[4]; 10 μg/ml,+
same,growth inhibition,[4]; 100 μg/ml,+
same,growth inhibition,[5]; 1 μg/ml,-
same,growth inhibition,[5]; 10 μg/ml,+
same,growth inhibition,[5]; 100 μg/ml,+
same,growth inhibition,[6]; 1 μg/ml,-
same,growth inhibition,[6]; 10 μg/ml,-
same,growth inhibition,[6]; 100 μg/ml,-
same,growth inhibition,[7]; 1 μg/ml,-
same,growth inhibition,[7]; 10 μg/ml,-
same,growth inhibition,[7]; 100 μg/ml,-
same,growth inhibition,[8]; 1 μg/ml,-
same,growth inhibition,[8]; 10 μg/ml,-
same,growth inhibition,[8]; 100 μg/ml,-
same,growth inhibition,[9]; 1 μg/ml,+
same,growth inhibition,[9]; 10 μg/ml,+
same,growth inhibition,[9]; 100 μg/ml,+
same,growth inhibition,[10]; 1 μg/ml,-
same,growth inhibition,[10]; 10 μg/ml,-
same,growth inhibition,[10]; 100 μg/ml,-
same,growth inhibition,Escherichia coli; 1 μg/ml,-
same,growth inhibition,Escherichia coli; 10 μg/ml,-
same,growth inhibition,Escherichia coli; 100 μg/ml,-
same,growth inhibition,Pseudomonas aeruginosa; 1 μg/ml,-
same,growth inhibition,Pseudomonas aeruginosa; 10 μg/ml,-
same,growth inhibition,Pseudomonas aeruginosa; 100 μg/ml,-
same,growth inhibition,"Staphylococcus aureus; Gram-positive, 1 μg/ml",-
Trimethyltin 5-nitro-2-furoate [Compound E],growth inhibition,[1]; 1 μg/ml,-
same,growth inhibition,[1]; 10 μg/ml,+
same,growth inhibition,[1]; 100 μg/ml,+
same,growth inhibition,[2]; 1 μg/ml,-
same,growth inhibition,[2]; 10 μg/ml,+
same,growth inhibition,[2]; 100 μg/ml,+
same,growth inhibition,[3]; 1 μg/ml,-
same,growth inhibition,[3]; 10 μg/ml,+
same,growth inhibition,[3]; 100 μg/ml,+
same,growth inhibition,[4]; 1 μg/ml,+
same,growth inhibition,[4]; 10 μg/ml,+
same,growth inhibition,[4]; 100 μg/ml,2+
same,growth inhibition,[5]; 1 μg/ml,-
same,growth inhibition,[5]; 10 μg/ml,+
same,growth inhibition (in words),[5]; 100 μg/ml,completely inhibited
same,growth inhibition,[5]; 100 μg/ml,2+
same,growth inhibition,[6]; 1 μg/ml,+
same,growth inhibition,[6]; 10 μg/ml,+
same,growth inhibition,[6]; 100 μg/ml,+
same,growth inhibition,[7]; 1 μg/ml,-
same,growth inhibition,[7]; 10 μg/ml,-
same,growth inhibition,[7]; 100 μg/ml,-
same,growth inhibition,[8]; 1 μg/ml,+
same,growth inhibition,[8]; 10 μg/ml,+
same,growth inhibition,[8]; 100 μg/ml,+
same,growth inhibition,[9]; 1 μg/ml,+
same,growth inhibition,[9]; 10 μg/ml,+
same,growth inhibition,[9]; 100 μg/ml,+
same,growth inhibition,[10]; 1 μg/ml,+
same,growth inhibition (in words),[10]; 10 μg/ml,completely inhibited
same,growth inhibition,[10]; 10 μg/ml,2+
same,growth inhibition,[10]; 100 μg/ml,2+
same,activity towards the Gram-negative bacterium (in words),Escherichia coli,showed activity
same,growth inhibition (in words),Escherichia coli; 100 μg/ml,completely inhibited
same,growth inhibition,Escherichia coli; 1 μg/ml,-
same,growth inhibition,Escherichia coli; 10 μg/ml,-
same,activity towards the Gram-negative bacterium (in words),Pseudomonas aeruginosa,showed activity
same,growth inhibition,Pseudomonas aeruginosa; 1 μg/ml,-
same,growth inhibition,Pseudomonas aeruginosa; 10 μg/ml,-
same,growth inhibition,"Staphylococcus aureus; Gram-positive, 1 μg/ml",-
same,growth inhibition,"Staphylococcus aureus; Gram-positive, 10 μg/ml",-
Triphenyltin 5-nitro-2-furoate [Compound A],growth inhibition,[1]; 1 μg/ml,+
same,growth inhibition,[1]; 10 μg/ml,2+
same,growth inhibition,[1]; 100 μg/ml,2+
same,growth inhibition,[2]; 1 μg/ml,+
same,growth inhibition,[2]; 10 μg/ml,+
same,growth inhibition,[2]; 100 μg/ml,+
same,growth inhibition,[3]; 1 μg/ml,+
same,growth inhibition,[3]; 10 μg/ml,+
same,growth inhibition,[3]; 100 μg/ml,+
same,growth inhibition,[4]; 1 μg/ml,+
same,growth inhibition,[4]; 10 μg/ml,2+
same,growth inhibition,[4]; 100 μg/ml,2+
same,growth inhibition,[5]; 1 μg/ml,+
same,growth inhibition,[5]; 10 μg/ml,2+
same,growth inhibition,[5]; 100 μg/ml,2+
same,growth inhibition,[6]; 1 μg/ml,+
same,growth inhibition,[6]; 10 μg/ml,+
same,growth inhibition,[6]; 100 μg/ml,+
same,growth inhibition,[7]; 1 μg/ml,-
same,growth inhibition,[7]; 10 μg/ml,+
same,growth inhibition,[7]; 100 μg/ml,+
same,growth inhibition,[8]; 1 μg/ml,+
same,growth inhibition,[8]; 10 μg/ml,+
same,growth inhibition,[8]; 100 μg/ml,+
same,growth inhibition,[9]; 1 μg/ml,+
same,growth inhibition,[9]; 10 μg/ml,2+
same,growth inhibition,[9]; 100 μg/ml,2+
same,growth inhibition,[10]; 1 μg/ml,2+
same,growth inhibition,[10]; 10 μg/ml,2+
same,growth inhibition,[10]; 100 μg/ml,2+
same,minimum concentration for complete growth inhibition,Bacillus megaterium,1 µg/mL
same,growth inhibition,Escherichia coli; 1 μg/ml,-
same,growth inhibition,Escherichia coli; 10 μg/ml,-
same,growth inhibition,Escherichia coli; 100 μg/ml,-
same,growth inhibition,Pseudomonas aeruginosa; 1 μg/ml,-
same,growth inhibition,Pseudomonas aeruginosa; 10 μg/ml,-
same,growth inhibition,Pseudomonas aeruginosa; 100 μg/ml,-
same,minimum concentration for complete growth inhibition,Staphylococcus aureus; Gram-positive,1 µg/mL
same,"activity relative to Comparative Compounds 2, 4 and 5",Staphylococcus aureus; towards Staphylococcus aureus,identical
same,partial growth inhibition of test fungi (in words),test fungi; 1 μg/ml,"partially inhibiting the growth of all of the test fungi, except Saccharomyces cerevisiae"
same,number of test fungi with growth completely inhibited,test fungi; 10 μg/ml,5 of the 10 test fungi
same,"antifungal activity, rank among the triorganotin 5-nitro-2-furoates",test fungi; among Compounds A-E,second best antifungal agent

# Source: US4497806A, “Triorganotin compounds, antifungal and antibacterial compositions containing same, and method of using same” (priority 1983, dated 1985)
